Common to all, as to assay: BROMOscan ligand-binding assay
The target of one assay is T1, ATAD2A (Homo sapiens, UniProt Q6PL18).
T1 sequence (Q6PL18 980-1092 limits assumed): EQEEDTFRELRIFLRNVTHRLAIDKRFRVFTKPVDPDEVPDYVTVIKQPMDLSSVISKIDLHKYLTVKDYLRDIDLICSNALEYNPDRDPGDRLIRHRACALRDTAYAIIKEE
The note with it: for Kd: sheet prints no unit (nM).

The target in a further assay is BRD4(2) (Homo sapiens, UniProt O60885).
A further assay addresses T2, TRIM33(PHD,BRD) (Homo sapiens, UniProt Q9UPN9).
T2 sequence (Q9UPN9 882-1087 limits assumed): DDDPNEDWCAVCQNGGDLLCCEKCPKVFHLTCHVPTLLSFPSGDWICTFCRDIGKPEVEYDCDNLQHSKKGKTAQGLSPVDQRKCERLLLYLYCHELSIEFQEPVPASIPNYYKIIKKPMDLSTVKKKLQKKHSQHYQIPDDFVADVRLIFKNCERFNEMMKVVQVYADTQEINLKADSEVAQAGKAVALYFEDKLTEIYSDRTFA
To be noted: for Kd: sheet prints no unit (nM).

Another assay addresses T3, TAF1(2) (Homo sapiens, UniProt P21675).
T3 sequence (P21675 1519-1628 limits assumed): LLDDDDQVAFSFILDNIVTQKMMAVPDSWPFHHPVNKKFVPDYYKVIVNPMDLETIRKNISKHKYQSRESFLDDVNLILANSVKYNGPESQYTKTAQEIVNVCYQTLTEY

Another assay deals with T4, BRD9 (Homo sapiens, UniProt Q9H8M2).
T4 sequence (Q9H8M2 136-240 limits assumed): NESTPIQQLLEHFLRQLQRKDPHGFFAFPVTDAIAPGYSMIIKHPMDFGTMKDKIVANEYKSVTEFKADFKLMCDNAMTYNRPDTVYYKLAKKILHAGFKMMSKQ

In the next assay the target is T5, ATAD2B (Homo sapiens, UniProt Q9ULI0).
T5 sequence (Q9ULI0 951-1066 limits assumed): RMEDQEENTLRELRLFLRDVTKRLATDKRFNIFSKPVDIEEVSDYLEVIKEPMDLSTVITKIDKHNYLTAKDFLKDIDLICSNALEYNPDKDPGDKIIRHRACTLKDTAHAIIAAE
To be noted: for Kd: sheet prints no unit (nM).

The target of the next assay is FALZ (Homo sapiens, UniProt Q12830). The note with it: for Kd: sheet prints no unit (nM).
A further assay deals with T6, BRD1 (Homo sapiens, UniProt O95696).
T6 sequence (O95696 562-666 limits assumed): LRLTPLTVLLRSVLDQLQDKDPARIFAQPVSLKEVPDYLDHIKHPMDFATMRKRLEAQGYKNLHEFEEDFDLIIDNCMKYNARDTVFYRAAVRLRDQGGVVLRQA

A further assay deals with BRDT(1) (Homo sapiens, UniProt Q58F21).
The next assay deals with T7, BAZ2A (Homo sapiens, UniProt Q9UIF9).
T7 sequence (Q9UIF9 1793-1897 limits assumed): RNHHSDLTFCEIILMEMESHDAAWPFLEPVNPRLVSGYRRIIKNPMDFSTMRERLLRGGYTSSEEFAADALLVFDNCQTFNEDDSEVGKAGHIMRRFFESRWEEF

In a further assay the target is T8, EP300 (Homo sapiens, UniProt Q09472).
T8 sequence (Q09472 1049-1156 limits assumed): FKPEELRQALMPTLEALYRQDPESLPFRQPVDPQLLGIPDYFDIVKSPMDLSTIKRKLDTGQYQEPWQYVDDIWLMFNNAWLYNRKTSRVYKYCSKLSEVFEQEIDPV

Another assay deals with T9, TAF1L(2) (Homo sapiens, UniProt Q8IZX4).
T9 sequence (Q8IZX4 1517-1626 limits assumed): T3 sequence (P21675 1519-1628 limits assumed) with V46M, M51V, V102I, L107I

The target in another assay is T10, BRD7 (Homo sapiens, UniProt Q9NPI1).
T10 sequence (Q9NPI1 131-235 limits assumed): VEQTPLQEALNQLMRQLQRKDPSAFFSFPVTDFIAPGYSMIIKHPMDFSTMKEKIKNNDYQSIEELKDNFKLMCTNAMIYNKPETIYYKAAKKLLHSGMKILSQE
The note with it: for pKd: BRD7.

The next assay addresses T11, GCN5L2 (Homo sapiens, UniProt Q92830).
T11 sequence (Q92830 728-832 limits assumed): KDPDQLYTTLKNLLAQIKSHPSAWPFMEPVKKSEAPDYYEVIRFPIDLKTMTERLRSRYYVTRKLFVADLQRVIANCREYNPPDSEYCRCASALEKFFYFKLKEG
The note with it: for pKd: GCN5L2.

The next assay concerns the target T12, PCAF (Homo sapiens, UniProt Q92831).
T12 sequence (Q92831 723-827 limits assumed): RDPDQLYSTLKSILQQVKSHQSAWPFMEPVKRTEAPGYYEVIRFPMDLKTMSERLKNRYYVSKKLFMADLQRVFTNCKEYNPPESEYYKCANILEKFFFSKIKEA
To be noted: for pKd: PCAF.

The target of a further assay is CECR2 (Homo sapiens, UniProt Q9BXF3). To be noted: for Kd: sheet prints no unit (nM); for pKd: CECR2.
Sequence of CECR2 (Q9BXF3 434-538 limits assumed): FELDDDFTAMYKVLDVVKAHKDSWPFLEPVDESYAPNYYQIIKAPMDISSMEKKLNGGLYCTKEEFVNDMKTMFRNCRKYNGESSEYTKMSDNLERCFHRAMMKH
The next assay concerns the target BRDT(1,2) (Homo sapiens, UniProt Q58F21). The note with it: for pKd: BRDT(1,2).
The next assay deals with BRD3(1,2) (Homo sapiens, UniProt Q15059). The note with it: for pKd: BRD3(1,2).
Sequence of BRD3(1,2) (Q15059 24-416 limits assumed): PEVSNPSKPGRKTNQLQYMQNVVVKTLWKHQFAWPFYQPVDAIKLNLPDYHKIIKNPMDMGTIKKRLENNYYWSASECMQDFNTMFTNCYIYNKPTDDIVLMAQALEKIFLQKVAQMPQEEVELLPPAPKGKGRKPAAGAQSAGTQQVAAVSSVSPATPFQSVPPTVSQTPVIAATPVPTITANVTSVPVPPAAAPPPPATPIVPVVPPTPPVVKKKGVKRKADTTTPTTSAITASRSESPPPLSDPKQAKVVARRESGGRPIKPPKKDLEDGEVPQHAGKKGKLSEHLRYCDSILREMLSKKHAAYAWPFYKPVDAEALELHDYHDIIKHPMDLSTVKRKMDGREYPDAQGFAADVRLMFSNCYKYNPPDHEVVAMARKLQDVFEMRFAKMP
The target of the next assay is BRD4(1,2) (Homo sapiens, UniProt O60885). The note with it: BRD4(1,2).
Where [1] appears, read: KD (BROMOscan), sheet prints no unit (nM).

Substitutions are numbered along the chain they refer to. pKd: −log10 of the molar value. Where two headings read alike, the source gives them in different places.

Description for ATAD2A: (§1) BROMOscan is a binding assay based on the well-known KINOMEscan technology. This assay measures the binding of a DNA-tagged bromodomain to an immobilized BRD ligand. If an inhibitor is present, it will compete with the bromodomain binding to the immobilized ligand, resulting in reduction of a quantitative PCR (qPCR) signal in a dose-dependent manner.
Description for ATAD2B: as §1
Description for BAZ2A: as §1
Description for BRD1: as §1
Description for BRD3(1,2): as §1
Description for BRD4(1,2): as §1
Description for BRD4(2): as §1
Description for BRD7: as §1
Description for BRD9: as §1
Description for BRDT(1): as §1
Description for BRDT(1,2): as §1
Description for CECR2: as §1
Description for EP300: as §1
Description for FALZ: as §1
Description for GCN5L2: as §1
Description for PCAF: as §1
Description for TAF1(2): as §1
Description for TAF1L(2): as §1
Description for TRIM33(PHD,BRD): as §1

What is called pKd is −log10 of the Kd, conventionally taken in molar units. Read a high pKd as a low Kd. As a reminder, the Kd is the free concentration of one partner at which half of the binding sites on the other are occupied at equilibrium, for simple one-to-one binding. Turning to `Cc1noc(C)c1-c1ccc2c(c1)nc(CCc1ccccc1)n2CCN1CCOCC1` [CBP30-298], the pKd is less than 3.82 on ATAD2A (BROMOscan Gene Symbol ATAD2A); 5.57 on BRD4(2) (BROMOscan Gene Symbol BRD4(2)); less than 4.30 at TRIM33(PHD,BRD) (BROMOscan Gene Symbol TRIM33(PHD,Bromo.)); 5.24 on TAF1(2) (BROMOscan Gene Symbol TAF1(2)); 4.92 at BRD9 (BROMOscan Gene Symbol BRD9); less than 4.30 on ATAD2B (BROMOscan Gene Symbol ATAD2B). Besides, the pKd on FALZ (BROMOscan Gene Symbol FALZ) was less than 4.30; on BRD1 (BROMOscan Gene Symbol BRD1), 4.34; at BRDT(1) (BROMOscan Gene Symbol BRDT(1)), 5.74; on BAZ2A (BROMOscan Gene Symbol BAZ2A), 4.26; at EP300 (BROMOscan Gene Symbol EP300), 7.04; at TAF1L(2) (BROMOscan Gene Symbol TAF1L(2)) it was 4.77. The Kd on ATAD2A (read-out: KD (BROMOscan)), at TRIM33(PHD,BRD) (read-out: KD (BROMOscan)), on ATAD2B (read-out: KD (BROMOscan)) and at FALZ (read-out: KD (BROMOscan)) was more than 30000 nM each time.

As for `O=C(C=CN1CC2CC1CN2c1ccccn1)c1ccccc1O` (stereo not drawn) [PFI-3], the Kd on BRD7 (setting [1]), on ATAD2A (KD (BROMOscan)), at TRIM33(PHD,BRD) (KD (BROMOscan)), on BRD9 (setting [1]), on ATAD2B (KD (BROMOscan)) and on GCN5L2 (setting [1]) was more than 30000 nM each time. Moreover, the Kd on PCAF (setting [1]), at FALZ (KD (BROMOscan)), at CECR2 (KD (BROMOscan)), on BRDT(1) (setting [1]), on BRDT(1,2) (setting [1]) and at EP300 (setting [1]) was more than 30000 nM throughout. Moreover, on BRD3(1,2) (setting [1]), the Kd is more than 30000 nM. For the same compound, the pKd at BRD7 (KD) is less than 4.00; on ATAD2A (KD, ATAD2A), less than 4.00; at TRIM33(PHD,BRD) (KD, TRIM33(PHD,Bromo.)) it was less than 4.00; on BRD9 (KD, BRD9), less than 4.00; at ATAD2B (KD, ATAD2B), less than 4.00; on GCN5L2 (KD), less than 4.00. The pKd at PCAF (KD) is less than 4.00; at FALZ (KD, FALZ), less than 4.00; at CECR2 (KD), less than 4.00; on BRDT(1) (KD, BRDT(1)), less than 4.00; at BRDT(1,2) (KD), less than 4.00; on BAZ2A, less than 4.00. Further, the pKd on EP300 (KD, EP300) is less than 4.00; at BRD3(1,2) (KD), less than 4.00.

For the compound `COc1cc2c(cc1NS(=O)(=O)c1ccc(Br)cc1C)n(C)c(=O)n2C` [OF-1], the pKd on BRD7 is 6.00; on ATAD2A (ATAD2A) it was less than 4.30; on TRIM33(PHD,BRD) (TRIM33(PHD,Bromo.)) it was 4.40; at TAF1(2) (TAF1(2)), 5.33; at BRD9 (BRD9), 5.54; at ATAD2B (ATAD2B), 4.54. For the same compound, the pKd at GCN5L2 is 5.16; on PCAF it was 4.92; at FALZ (FALZ) it was 5.80; on CECR2, less than 4.30; at BRD1 (BRD1), 6.44; on BRDT(1) (BRDT(1)) it was 5.46. The pKd on BRDT(1,2) is 4.96; at BAZ2A (BAZ2A) it was 4.89; at EP300 (EP300) it was 4.33; on TAF1L(2) (TAF1L(2)) it was 5.28; at BRD3(1,2), 5.31. Moreover, the Kd at CECR2 (read-out: KD (BROMOscan)) was more than 30000 nM.

Consider `COc1cc(C#N)ccc1S(=O)(=O)Nc1ccc2c(c1)cc(C)c(=O)n2C` [NI 57], for which the pKd is less than 4.30 at ATAD2A (ATAD2A); less than 4.30 at BRD4(2) (BRD4(2)); less than 4.30 at TRIM33(PHD,BRD) (TRIM33(PHD,Bromo.)); 5.31 at TAF1(2) (TAF1(2)); 6.80 at BRD9 (BRD9); less than 4.30 at ATAD2B (ATAD2B). Also, the negative logarithm of the Kd (pKd) is 5.39 on GCN5L2; 5.38 at PCAF; 4.82 on BRD4(1,2); 5.64 at FALZ (FALZ); 4.92 at CECR2; 7.34 at BRD1 (BRD1). For the same compound, the pKd on BRDT(1) (BRDT(1)) was 5.32; at BRDT(1,2), less than 4.30; on BAZ2A (BAZ2A), less than 4.30; on EP300 (EP300), 4.82; on TAF1L(2) (TAF1L(2)), 5.26; on BRD3(1,2), 4.92.

With `Cc1cc(=O)n(C)c2cc(N3C(=O)CC[C@H](NS(=O)(=O)CC(C)C)[C@H]3c3ccc(Cl)cc3)ccc12` [LP-99], the pKd was less than 4.30 on ATAD2A (ATAD2A); 4.60 at BRD4(2) (BROMOscan, BRD4(2)); less than 4.30 at TRIM33(PHD,BRD) (BROMOscan, TRIM33(PHD,Bromo.)); less than 4.30 at TAF1(2) (BROMOscan, TAF1(2)); less than 4.30 at ATAD2B (ATAD2B); less than 4.30 at GCN5L2 (BROMOscan). The pKd is less than 4.30 on PCAF (BROMOscan); 4.39 at BRD4(1,2) (BROMOscan); less than 4.30 on FALZ (BROMOscan, FALZ); less than 4.30 at CECR2 (BROMOscan); 4.66 at BRD1 (BRD1); less than 4.30 at BRDT(1) (BROMOscan, BRDT(1)). Also, the pKd at BRDT(1,2) (BROMOscan) was 4.68; at BAZ2A (BAZ2A), less than 4.30; on EP300 (BROMOscan, EP300), less than 4.30; at TAF1L(2) (BROMOscan, TAF1L(2)), less than 4.30; at BRD3(1,2) (BROMOscan), 4.33.

Source of the values: article PMC6478789, “A chemical toolbox for the study of bromodomains and epigenetic signaling” (Nature Communications, 2019).
